Experimental findings from patent US20250271418A1, “ANTICANCER DRUG ASSESSMENT METHODS AND ANTICANCER DRUG ASSESSMENT KITS” (TOPPAN HOLDINGS INC., priority 2022, published 2025) are described below.

Holding throughout (test): cells
The test system of test [1] is HT29, a human colorectal adenocarcinoma cell line. The following applies: 72 h, read-out: Cell viability (%).
For test [2] the test system is unchanged. The conditions noted are these: HT-29, 72 h, read-out: Cell viability (%).
Test [3] shares this test system. The conditions noted are these: 72 h, read-out: Cell viability (%). The source holds these as a separate data set.

Where two headings read alike, the source gives them in different places.

By viability is commonly meant a per cent measure of how many cells are alive, often set against a control. Regarding `O=c1[nH]cc(F)c(=O)[nH]1` [5-FU, 5-fluorouracil], in test [1], the viability at 1 µM stood at 100 ± 31.2%. In addition, in test [2], the viability at 1 µM was 99.3 ± 21%, the viability at 10 µM was found to be 75.3 ± 12.4%, the viability at 100 µM was determined as 54.3 ± 10.2% and the viability at 1000 µM amounted to 40.3 ± 8.34%. In addition, the viability at 1 µM in test [3] came out at 100 ± 13.2%.
